The record followed here is ChEMBL document CHEMBL3526144 (Drug Metab Dispos, 2011).

Molecules are shown by their SMILES. pKi: −log10 of the molar value.

Data set [1] can be described thus: Inhibition of CYP3A4.1 (unknown origin)-mediated testosterone 6beta-hydroxylation incubated for 10 mins prior to NADPH addition measured after 20 mins by HPLC-UV analysis.
A short description of data set [2]: Inhibition of CYP3A4.2 (unknown origin)-mediated testosterone 6beta-hydroxylation incubated for 10 mins prior to NADPH addition measured after 20 mins by HPLC-UV analysis.
The nature of data set [3]: Inhibition of CYP3A4.7 (unknown origin)-mediated testosterone 6beta-hydroxylation incubated for 10 mins prior to NADPH addition measured after 20 mins by HPLC-UV analysis.
Data set [4] in a line: Inhibition of CYP3A4.16 (unknown origin)-mediated testosterone 6beta-hydroxylation incubated for 10 mins prior to NADPH addition measured after 20 mins by HPLC-UV analysis.
The nature of data set [5]: Inhibition of CYP3A4.18 (unknown origin)-mediated testosterone 6beta-hydroxylation incubated for 10 mins prior to NADPH addition measured after 20 mins by HPLC-UV analysis.
The subject of data set [6] is CYP3A4.7 and CYP3A4.1. As to the kind of experiment: Ratio of Ki for CYP3A4.7 (unknown origin) to Ki for CYP3A4.1 (unknown origin). In kind it is ADME. Conditions: human.
Data set [7] relates to CYP3A4.16 and CYP3A4.1. As to the kind of experiment: Ratio of Ki for CYP3A4.16 (unknown origin) to Ki for CYP3A4.1 (unknown origin). Conditions: human.
For data set [8], the system named is CYP3A4.2 and CYP3A4.1. As to the kind of experiment: Ratio of Ki for CYP3A4.2 (unknown origin) to Ki for CYP3A4.1 (unknown origin). In kind it is ADME. The following applies: human.

As usually defined, the pKi is the Ki on a negative log10 scale, so that one unit is a factor of ten. A higher pKi goes with a small Ki. Take `CCC(C)n1ncn(-c2ccc(N3CCN(c4ccc(OCC5COC(Cn6cncn6)(c6ccc(Cl)cc6Cl)O5)cc4)CC3)cc2)c1=O` (stereo not drawn) [ITRACONAZOLE]: the negative logarithm of the Ki (pKi) is 7.12 in data set [1]; 7.35 in data set [2]; 6.75 in data set [3]; 7.39 in data set [4]; 7.09 in data set [5]. The selectivity ratio in data set [6] was found to be 2.4; in data set [7], 0.54; in data set [8], 0.59.
